“Also recorded” adds a separate entry of the source.
Key:
[1] = Drug content of PLGA pellets; assay type: physicochemical
Procedure: Drug-loaded PLGA pellets were made by the hot-melt extrusion method (Leelakanok et al., […]; Danyuo et al., 2017). The goal was to load the maximum amount of drug possible in the pellets, which varies depending on the physical and chemical properties of the drugs and their behavior during the hot melt extrusion process. The maximum doses carried in PLGA pellets were 120±3.6 μg SSZ/mg pellet, 126±5 μg BAPN/mg pellet, and 250±3.2 μg CHP/mg pellet. In vitro tests confirmed the drugs and pellets were not cytotoxic (FIG. 40).
To determine the drug content of the pellets, the pellets were individually dissolved in chloroform (500 μL) and then mixed with 1 mL water to let the active ingredient migrate to the aqueous phase for at least 30 minutes. Drug elution profiles were characterized in vitro prior to implantation. Elution was measured by incubation of the pellets in phosphate buffered saline (PBS) at 37° C. in a shaking incubator set to 300 rpm (FIGS. 30B, C, and D) (Leelakanok et al., 2018; Danyuo et al., 2017). At each time point, PBS was removed from the pellets and replaced with fresh PBS. The amount of BAPN released at each time point was determined using a Fluorescamine assay followed by fluorescent spectroscopy (excitation wavelength: 390 nm, emission wavelength: 475 nm). The amount of CHP released at each time point was determined by hydroxyproline assay with spectrophotometric detection at 560 nm. The amount of SSZ released at each time point was determined using UV spectroscopy at 359 nm.

[2] = tested on: normal wound healing; settings: therapeutic dose levels; cited from earlier work
[3] = tested on: α-SMA expression in JCFs; test: α-SMA immunostaining of JCFs from treated joints; assay type: cell-based, rabbit; settings: versus control
Procedure: (§1) Capsule tissues were harvested and transferred to a T-75 flask with 15 mL of Dulbecco's Modified Eagle Medium/Ham's Formula-12 Nutrient Mixture (DMEM/F-12) media containing 10% fetal bovine serum (FBS), 1% Penn Strep, and 1% Amphotericin B, and incubated at 37° C. in a 5% O2, 5% CO2 atmosphere for about 5 days to allow cells to migrate out of the tissue and adhere to the plate. The JCFs were cultured until confluent (about 2 weeks) before analysis.
JCFs were seeded at a density of 10,000 cells per […] on UV-sterilized glass coverslips. After 48 hours, the medium was discarded and the samples were washed with Dulbecco's PBS (DPBS). The samples were fixed in 4% paraformaldehyde for 1 hour and then rinsed thrice with DPBS. The cells were then permeabilized with 0.5% Triton X for 5 minutes at room temperature and blocked with 10% goat serum for 30 minutes. The samples were then incubated with an anti-α-SMA mouse monoclonal antibody (Abcam) at a 1:100 dilution in DPBS overnight at 4° C. After washing in DPBS, the cells were blocked with goat serum for 30 minutes at 37° C. and then incubated with a fluorophore-conjugated goat anti-mouse IgG secondary antibody (488 excitation) (Life Technologies) at a 1:100 dilution for 30 minutes at 37° C. Cells were then washed thrice with DPBS, incubated with phalloidin at a 1:100 dilution for 30 minutes at 37° C., and then mounted with 4′,6-diamidino-2-phenylindole (DAPI)-containing mounting medium. Stained sections were imaged using an Olympus FV1000 confocal microscope. Percent positive α-SMA (immunostained/DAPI-stained×100) was evaluated in at least 4 microscope fields using ImageJ.

[4] = tested on: joint capsule fibroblasts (JCFs); test: Collagen gel compaction assay with JCFs from treated joints; assay type: cell-based, rabbit; settings: for Compaction rate: first 12 hours of incubation, versus control; for Maximum compaction at 48 hours: cells from immobilized treated joints versus control joints
Procedure: as §1
Collagen gel compaction assays were used to determine the contractile activity of JCFs isolated from variously treated rabbits (Yuda & McCulloch, 2018). Collagen gels were produced by combining 10×PBS containing phenol red, 1N NaOH, and rat tail type I collagen (2 mg/mL) (Invitrogen), and JCFs to give a final cell concentration of 1×10^6 cells/mL. Five hundred μL of the collagen gel mixture was added to each well in a 24-well plate and allowed to polymerize for 30 minutes in an incubator. After 30 minutes, 500 μL of DMEM containing 10% FBS and 50 μg/mL ascorbic acid was added to each well. The plates were then incubated for 24 hours to allow the cells to generate a state of isometric tension. After 24 hours, the medium was replaced with 500 μL of fresh DMEM containing 10% FBS and ascorbic acid. After 48 hours, the gels were detached from the walls of the wells using a sterile spatula to allow the cells to freely compact the gels. Images were acquired over the next 48 hours, and the changes in gel cross sectional area were measured with ImageJ.
DNA assays were used to control for well-well variations in cell numbers that could affect the rate and extent of gel compaction. After 48 hours of compaction, the medium was aspirated and the gels were washed with PBS thrice. Five hundred μL of 0.25 mg/mL collagenase was added and the plates incubated at 37° C. overnight. Cell pellets were collected by centrifuging at 500 g for 10 minutes. The supernatants were discarded and the pellets frozen at −80° C. overnight. After thawing at room temperature, the pellets were suspended in 1.0 mL of RNAse/DNAse-free water and then sonicated for 30 minutes. DNA concentrations were measured using 0.2 μg/mL of Hoechst 33342 in 10×TNE buffer (100 mM Tris, 2.0 M NaCl, and 10 mM EDTA at pH 7.4) with excitation and emission wavelengths at 360 nm and 460 nm respectively with calf thymus DNA as a standard. A calibration curve was generated to relate DNA concentration to the number of JCFs in the cultures.

[5] = tested on: stifle joint stiffness; test: Flexion-extension testing, rabbit stifle joint immobilization model; assay type: in vivo; settings: 8 weeks after pellet implantation; for Maximum torque (joint stiffness): versus blank pellet control
From the text: (§2) The minimal number of animals was used to assess the specific aims of this study. Eight-rabbits were included in each of the treatment groups. […] Non-immobilized, untreated (normal) joints were included to provide normative baselines for joint mobility and histologic outcomes. The study included this normal group, as well as an immobilized group implanted with blank pellets (control), and immobilized groups treated with BAPN-, CHP-, or SSZ-loaded pellets. Joints were immobilized for 8 weeks to establish arthrofibrosis/capsule contracture as previously described (Nesterenko et al., 2009). Kirschner-wires (K-wires) were then removed and the various pellets implanted in the joint. After another 8 weeks the animals were euthanized, and the joints immediately tested for stiffness in extension and anterior-posterior (A-P) laxity. Capsule tissues were harvested for histology to evaluate in situ α-SMA expression and intima thickness, and for in vitro quantitation of cellular contractile activity and α-SMA expression.
Flexion-extension testing of normal and fibrotic joints was performed immediately after euthanasia, when limbs were disarticulated at the hip, stripped of skin and muscle, and fastened securely to a custom testing device equipped with a stepper motor and a 10 N load cell and controlled by a computer with a custom LabVIEW (National Instruments)-based program (FIG. 38) (Hildebrand et al., 2004; Nesterenko et al., 2009). Starting at 10° of extension, the limbs were driven to 170° of extension, and then returned to the starting position at a rotational velocity of 5°/s while continuously recording load and position. The starting extension angle was measured using a digital protractor (Barry Wixey Development) (FIG. 39). The peak torque at maximum extension (N-m) and dissipated energy (mJ) were derived as measures of joint stiffness. The increased hysteresis in immobilized joints arises from posterior capsule stiffening, which restricts extension, but not flexion.

[6] = tested on: fibrosis in a rat stifle joint immobilization model; settings: in vivo; cited from earlier work
[7] = tested on: ACL function; test: Drawer test (A-P laxity), rabbit stifle joint immobilization model; assay type: in vivo; settings: 8 weeks after pellet implantation; versus control
From the text: as §2, with “After another 8 weeks the animals were euthanized, and the joints immediately tested for stiffness in extension and anterior-posterior (A-P) laxity.” left out
After flexion-extension testing, a custom loading fixture was used to assess sagittal-plane laxity (drawer test), which is related to cruciate ligament integrity (Tochigi et al., 2011). […] Force and displacement data were continuously recorded through the sequence of tests, which consisted of three cycles to adjust leg placement for neutral starting position, followed by three cycles of data collection. […]

[8] = tested on: synovial intima; test: Capsule histology, synovial intimal thickness; assay type: in vivo, rabbit; settings: immobilization-induced increase, versus control
From the text: as §2
Portions of the posterior capsule were fixed in 10% neutral buffered formalin, and then processed for paraffin histology. […] Stained slides were imaged using an Olympus VS110 Virtual Microscope System, and intimal thickness was quantified at 5 random areas in the synovial intima using ImageJ.

[9] = tested on: PTOA after intra-articular fracture; test: Porcine intra-articular fracture (IAF) model; assay type: in vivo, Yucatan minipig; settings: 6 months post-IAF; intra-articular injection, 2.5 mM; anatomically-reduced joints
From the text: Yucatan Minipig Intra-articular Fracture Model. The Yucatan minipig model was developed to create an IAF of a reproducible severity without arthrotomy (Goetz et al., 2015). Under general anesthesia, an antero-medial approach to the hock joint, which is analogous to the human ankle joint, is made without disrupting the joint capsule. […] A stress-rising saw cut is made through the anterior tibial cortex, stopping 1-2 mm proximal to the subchondral bone. Two drill holes are made proximal to the saw cut into which a plate with a ball-joint is press fit. This ball joint interfaces with the instrumented sled on our impaction pendulum to rigidly support the tibia. The pendulum delivers a 40 J impact to the impaction tripod, driving the talus against the distal tibia causing a fracture of the distal tibia that is guided by the stress-rising saw cut. The result is a fracture fragment that consists of the anterior third of the distal tibial articular surface which is fixed using standard open reduction and internal fixation (ORIF) techniques (FIG. 12). […] In this study it is determined if lubricin gene therapy is an effective adjunct to amobarbital at the later time point, with or without residual incongruity; thus, all animals in this study survive to 12 months post-fracture. […]

[10] = tested on: PTOA after intra-articular fracture; settings: 12 months post-IAF; cited from earlier work

| SMILES | Maximum dose carried in PLGA pellets [1] | Effect on normal wound healing [2] | Percent α-SMA positive [3] | Compaction rate [4] | Maximum torque (joint stiffness) [5] | Maximum compaction at 48 hours [4] | Maximum compaction at 48 hours ([4]; listed as beta-aminopropionitrile) | Development of fibrosis [6] | Anterior drawer stiffness / A-P laxity [7] | Percent α-SMA positive ([3]; listed as sulfasalazine) | Maximum compaction at 48 hours ([4]; listed as Sulfasalazine) | Synovial intimal thickness [8] | Synovial intimal thickness ([8]; listed as sulfasalazine) | Maximum torque (joint stiffness) ([5]; listed as sulfasalazine) | Dissipated energy ([5]; versus control) | PTOA progression at 6 months [9] | PTOA progression at 12 months [10] |
| --- | --- | --- | --- | --- | --- | --- | --- | --- | --- | --- | --- | --- | --- | --- | --- | --- | --- |
| O=C(O)[C@@H]1C[C@@H](O)CN1 (relative stereo) [CHP, Cis-hydroxyproline] | 250±3.2 μg CHP/mg pellet | Neither CHP nor BAPN retarded normal wound healing | only slightly lower than control | somewhat lower than control | Neither BAPN nor CHP had significant effects |  |  |  |  |  |  |  |  |  |  |  |  |
| N#CCCN [BAPN, beta-amino propionitrile] | 126±5 μg BAPN/mg pellet | Neither CHP nor BAPN retarded normal wound healing | nearly significantly lower | somewhat lower than control | Neither BAPN nor CHP had significant effects | significantly lower | significantly inhibited this effect | prevented the development of fibrosis |  |  |  |  |  |  |  |  |  |
| O=C(O)c1cc(/N=N/c2ccc(S(=O)(=O)Nc3ccccn3)cc2)ccc1O [SSZ, Sulfasalazine] | 120±3.6 μg SSZ/mg pellet |  | significantly lower than control | significantly lower compaction rate | significantly less stiff than controls | significantly lower |  |  | significantly stiffer than controls | significantly higher in control versus normal (p=0.0021) and versus sulfasalazine | significantly inhibited this effect | inhibited significantly | significantly lower than control | reduced stiffness | significantly reduced |  |  |
| CCC1(CCC(C)C)C(=O)NC(=O)NC1=O [amobarbital] |  |  |  |  |  |  |  |  |  |  |  |  |  |  |  | dramatically forestalled the progression of PTOA; also recorded: highly effective in preventing changes | moderate degenerative changes were observed; also recorded: less effective |
